# Experimental data taken from patent publication US20090209560A1, “ANTI-INFLAMMATION ACTIVITY OF NEWLY SYNTHESIZED XANTHINE DERIVATIVES KMUP-1 AND KMUP-3” (KAOHSIUNG MEDICAL UNIVERSITY, priority 2006, published 2009).
# Columns and labels:
# Format in all cases: cell-based, rat
# cGMP = assay: Intracellular cGMP level in TSMCs (radioimmunoassay); settings: 10 μM, 20 min pretreatment, then TNF-α 100 ng/ml for 9 hrs; FIG. 10(A)
# Procedure: (§1) The tracheal smooth muscle cell (TSM) culture is prepared from male Wistar rats purchased from the National Laboratory Animal Breeding and Research Center (Taipei, Taiwan).
# The Wistar rats were injected intraperitoneally with a lethal dose of pentobarbital. The tracheas were excised and cut longitudinally through the cartilage. Using a dissecting microscope, TSM strips were dissected from the surrounding parenchyma. The epithelium was removed from the luminal surface, and bands of TSM were gently separated from the underlying connective tissue. The TSM strips were then chopped into small sections (1 mm^3) and incubated in Hank's balanced salt solution (NaCl, 138 mM; NaHCO3, 4 mM; KCl, 5 mM; KH2PO4, 0.3 mM; Na2HPO4, 0.3 mM; glucose, 1.0 mM) with 0.05% elastase type IV and 0.2% collagenase type IV (Invitrogen, Carlsbad, Calif.) for 30 min at 37° C. with gentle shaking. The solution of dissociated smooth muscle cells was centrifuged (6 min at 500 g) and the pellet was resuspended in 1:1 Dulbecco's modified Eagle's medium-Ham's F-12 medium supplemented with 10% fetal bovine serum (FBS), 0.244% NaHCO3, and 1% penicillin/streptomycin. […]
# Intracellular cGMP production was decreased and reaching minimal production at 9 hr in TSMCs in the presence of TNF-α (100 ng/ml). Intracellular concentrations of cAMP and cGMP in TSMC were measured to investigate the effects of KMUP-1, KMUP-3, and the other PDE5 inhibitor zaprinast or the isoproterenol thereto. […] The concentrations of cGMP of each sample were measured using cGMP-[125I] radioimmunoassay kits (GE Healthcare Bio-Sciences Corp., Piscataway, N.J.). […] As to the level of the cAMP, TSMCs were incubated with isoproterenol, KMUP-1, and KMUP-3 for 20 min, and further incubated in the absence or presence of TNF-α (100 ng/ml) for 9 hrs, where the concentrations of cAMP of each sample were measured using cAMP-[125I] radioimmunoassay kits (GE Healthcare Bio-Sciences Corp., Piscataway, N.J.).
# PKA = PKA protein expression by immunoblotting in TNF-α-exposed TSMCs; settings: TSMCs with TNF-α 100 ng/ml; for effect on TNF-α-induced increases of PKA protein: 10 μM, FIG. 8; for effect on TNF-α-increased expression of PKA protein: 0.1-100 μM, FIG. 7(A) as cited in text
# Procedure: as §1
# (§2) The Wistar rats were injected intraperitoneally with a lethal dose of pentobarbital. The tracheas were excised and cut longitudinally through the cartilage. Using a dissecting microscope, TSM strips were dissected from the surrounding parenchyma. The epithelium was removed from the luminal surface, and bands of TSM were gently separated from the underlying connective tissue. The TSM strips were then chopped into small sections (1 mm^3) and incubated in Hank's balanced salt solution (NaCl, 138 mM; NaHCO3, 4 mM; KCl, 5 mM; KH2PO4, 0.3 mM; Na2HPO4, 0.3 mM; glucose, 1.0 mM) with 0.05% elastase type IV and 0.2% collagenase type IV (Invitrogen, Carlsbad, Calif.) for 30 min at 37° C. with gentle shaking. The solution of dissociated smooth muscle cells was centrifuged (6 min at 500 g) and the pellet was resuspended in 1:1 Dulbecco's modified Eagle's medium-Ham's F-12 medium supplemented with 10% fetal bovine serum (FBS), 0.244% NaHCO3, and 1% penicillin/streptomycin. Cells were cultured in a condition with or without KMUP-1, KMUP-3 and other negative or positive control agents, in 25 cm^2 flasks at 37° C. in humidified air containing 5% CO2. The medium was changed every 2-3 days.
# (§3) To investigate the effects of TNF-α on PKG and PKA proteins, TSMCs were incubated with TNF-α (100 ng/ml) for 1, 3, 6, 9, 12, 18 and 24 hr, and the levels of PKG and PKA proteins were measured by immunoblotting. […] To investigate the effects of KMUP-1, KMUP-3, and the other PDE5 inhibitors zaprinast and exogenous 8-Br-cGMP on the TNF-α mediated pathway, TSMCs were incubated with TNF-α (100 ng/ml) and either one of the mentioned chemicals.
# COX-2 = COX-2 protein expression by immunoblotting in TNF-α-exposed TSMCs; settings: TSMCs with TNF-α 100 ng/ml, FIG. 9(B)
# Procedure: The Wistar rats were injected intraperitoneally with a lethal dose of pentobarbital. The tracheas were excised and cut longitudinally through the cartilage. Using a dissecting microscope, TSM strips were dissected from the surrounding parenchyma. The epithelium was removed from the luminal surface, and bands of TSM were gently separated from the underlying connective tissue. The TSM strips were then chopped into small sections (1 mm^3) and incubated in Hank's balanced salt solution (NaCl, 138 mM; NaHCO3, 4 mM; KCl, 5 mM; KH2PO4, 0.3 mM; Na2HPO4, 0.3 mM; glucose, 1.0 mM) with 0.05% elastase type IV and 0.2% collagenase type IV (Invitrogen, Carlsbad, Calif.) for 30 min at 37° C. with gentle shaking. The solution of dissociated smooth muscle cells was centrifuged (6 min at 500 g) and the pellet was resuspended in 1:1 Dulbecco's modified Eagle's medium-Ham's F-12 medium supplemented with 10% fetal bovine serum (FBS), 0.244% NaHCO3, and 1% penicillin/streptomycin. […] The medium was changed every 2-3 days.
# To investigate the effects of TNF-α on COX-2 protein, TSMCs were respectively incubated with or without TNF-α (100 ng/ml) for 1, 3, 6, 9, 12, 18 and 24 hr, and the levels of COX-2 proteins were measured by immunoblotting.
# nitrite/nitrate (NO) = assay: NO level measured by nitrite/nitrate in TSMC culture medium (colorimetric assay); settings: 10 μM, 20 min pretreatment, then TNF-α 100 ng/ml for 9 hrs; FIG. 11
# Procedure: as §1, §2
# Exposure of TSMCs to TNF-α (100 ng/ml) for 9 hrs led to accumulation of nitrite and nitrate in the culture medium, indicating the release of NO. Please refer to the FIG. 11, TSMCs were pretreated with KMUP-1, KMUP-3, 8-Br-cGMP and zaprinast for 20 minutes, and were further incubated in the presence of TNF-α (100 ng/ml) for 9 hrs. The concentrations of nitrite and nitrate (stable breakdown product of NO) of each sample were analyzed using nitrite/nitrate colorimetric assay kits (Cayman Chemical Co.) and run in duplicate.
# iNOS = iNOS protein expression by immunoblotting in TNF-α-exposed TSMCs; settings: TSMCs with TNF-α 100 ng/ml
# Procedure: as §1, §2
# (§4) To investigate the effects of TNF-α on iNOS and sGC proteins, TSMCs were incubated with TNF-α (100 ng/ml) for 1, 3, 6, 9, 12, 18 and 24 hr, and the levels of iNOS and sGC subunit proteins were measured by immunoblotting. […] In contrast to the increase expression of iNOS protein in FIG. 2, TNF-α in FIG. 3 decreased the expression of sGCα1 and sGCβ1 proteins in a time-dependent manner, with the maximal inhibition achieved at 9 hr. To investigate the effects of KMUP-1, KMUP-3, and the other PDE5 inhibitors zaprinast and exogenous 8-Br-cGMP on the TNF-α mediated pathway, TSMCs were incubated with TNF-α (100 ng/ml) and either one of the mentioned chemicals.
# sGCα1 and sGCβ1 proteins = assay: sGC subunit protein expression by immunoblotting in TNF-α-exposed TSMCs; settings: 10 μM; TSMCs with TNF-α 100 ng/ml; FIG. 5
# Procedure: as §1, §2, §4
# PGE2 and 6-keto-PGF1a = PGE2 and 6-keto-PGF1a release from TNF-α-exposed TSMCs (EIA); settings: 10 μM, 20 min pretreatment, then TNF-α 100 ng/ml for 24 hrs; FIG. 12
# Procedure: as §1, §2
# Incubation of TSMCs with TNF-α (100 ng/ml) increased the releases of PGs, PGE2 and 6-keto-PGF1a, a PGI2 stable metabolite, and the greatest increases occurred were measured at 24 hr. Please refer to the FIG. 12, TSMCs were pretreated with KMUP-1 (10 μM), KMUP-3 (10 μM), dexamethasone (1 μM) and zaprinast (10 μM) for 20 minutes, and were further incubated in the presence of TNF-α (100 ng/ml) for 24 hrs, where the concentrations of PGE2 and 6-keto-PGF1a (stable metabolite of […]) in the culture medium were measured using PGE2 and 6-keto-PGF1a EIA assay kits (Cayman Chemical Co., Ann Arbor, Mich.) in duplicate.
# PKG = PKG protein expression by immunoblotting in TNF-α-exposed TSMCs; settings: TSMCs with TNF-α 100 ng/ml; for effect on TNF-α-induced decreases of PKG protein: 10 μM, FIG. 8; for effect on TNF-α-induced decreases of PKG protein expression: concentration series, FIG. 7(B) as cited in text
# Procedure: as §1, §2, §3
# cAMP = assay: Intracellular cAMP level in TSMCs (radioimmunoassay); settings: FIG. 10(B)
# Procedure: as §1, §2
# Intracellular cGMP production was decreased and reaching minimal production at 9 hr in TSMCs in the presence of TNF-α (100 ng/ml). Intracellular concentrations of cAMP and cGMP in TSMC were measured to investigate the effects of KMUP-1, KMUP-3, and the other PDE5 inhibitor zaprinast or the isoproterenol thereto. As to the level of cGMP, TSMCs were pretreated with KMUP-1, KMUP-3, and the other PDE5 inhibitor zaprinast for 20 minutes and were further incubated in the presence of TNF-α (100 ng/ml) for 9 hrs. The concentrations of cGMP of each sample were measured using cGMP-[125I] radioimmunoassay kits (GE Healthcare Bio-Sciences Corp., Piscataway, N.J.). […] As to the level of the cAMP, TSMCs were incubated with isoproterenol, KMUP-1, and KMUP-3 for 20 min, and further incubated in the absence or presence of TNF-α (100 ng/ml) for 9 hrs, where the concentrations of cAMP of each sample were measured using cAMP-[125I] radioimmunoassay kits (GE Healthcare Bio-Sciences Corp., Piscataway, N.J.).
# [1] = in the presence of TNF-α 100 ng/ml for 9 hrs
Structure (SMILES),effect on TNF-α-decreased intracellular cGMP (cGMP),effect on TNF-α-induced increases of PKA protein (PKA),effect on TNF-α-increased expression of PKA protein (PKA),inhibition of TNF-α-induced COX-2 expression (COX-2),effect on TNF-α-induced production of nitrite/nitrate (NO levels) (nitrite/nitrate (NO)),"effect on TNF-α-induced increases of iNOS expression (iNOS; 10 μM, FIG. 4(B))","effect on TNF-α-induced increases of iNOS expression (iNOS; 0.01-100 μM, FIG. 4(A))",effect on TNF-α inhibition of sGCα1 and sGCβ1 protein expression (sGCα1 and sGCβ1 proteins),effect on TNF-α-induced PGE2 and 6-keto-PGF1a formation (PGE2 and 6-keto-PGF1a),effect on TNF-α-induced decreases of PKG protein (PKG),effect on TNF-α-induced decreases of PKG protein expression (PKG),"production of cAMP compared to the control group (cAMP; 10 μM, in the absence of TNF-α)",production of cAMP compared to the control group (cAMP; [1]),inhibition of TNF-α-induced COX-2 expression (COX-2; 10 μM pretreatment)
"Cn1c(=O)c2c(ncn2CCN2CCN(c3ccc([N+](=O)[O-])cc3)CC2)n(C)c1=O [KMUP-3, 7-[2-[4-(4-nitrobenzene)piperazinyl]ethyl]-1,3-dimethylxanthine]",reversed to the basal level,could not affect TNF-α-induced increases of PKA protein,not further increased,not,inhibited,inhibited TNF-α-induced increases of iNOS expression to a similar extent,inhibited TNF-α-induced increases of iNOS expression in a concentration-dependent manner,reversed,did not inhibit,reversed TNF-α-induced decreases of PKG protein,reversed,significantly increased,could not further increase,
"Cn1c(=O)c2c(ncn2CCN2CCN(c3ccccc3Cl)CC2)n(C)c1=O [KMUP-1, 7-[2-[4-(2-chlorobenzene)piperazinyl]ethyl]-1,3-dimethylxanthine]",reversed to the basal level,could not affect TNF-α-induced increases of PKA protein,not further increased,not,inhibited,inhibited TNF-α-induced increases of iNOS expression to a similar extent,inhibited TNF-α-induced increases of iNOS expression in a concentration-dependent manner,reversed,did not inhibit,reversed TNF-α-induced decreases of PKG protein,reversed,significantly increased,could not further increase,
"Nc1ncnc2c1nc(Br)n2[C@@H]1O[C@@H]2COP(=O)(O)O[C@H]2[C@H]1O [8-Br-cAMP, reference compound]",,could not affect TNF-α-induced increases of PKA protein,,,,,,,,,,,,
"CCCOc1ccccc1-c1nc2nn[nH]c2c(=O)[nH]1 [zaprinast, reference compound]",reversed to the basal level,could not affect TNF-α-induced increases of PKA protein,,,inhibited,inhibited TNF-α-induced increases of iNOS expression to a similar extent,,reversed,,reversed TNF-α-induced decreases of PKG protein,,,,
"Nc1nc2c(nc(Br)n2[C@@H]2O[C@@H]3COP(=O)(O)O[C@H]3[C@H]2O)c(=O)[nH]1 [8-Br-cGMP, reference compound]",,,,,inhibited,inhibited TNF-α-induced increases of iNOS expression to a similar extent,,reversed,,reversed TNF-α-induced decreases of PKG protein,,,,
"CS(=O)(=O)Nc1ccc([N+](=O)[O-])cc1OC1CCCCC1 [NS-398, reference compound]",,,,,,,,,significantly inhibited,,,,,significantly inhibit
"CC(C)NCC(O)c1ccc(O)c(O)c1 (stereo not shown) [isoproterenol, reference compound]",,,,,,,,,,,,significantly increased,,
